The text below walks through data of US10172905B1, “Treatment of protein degradation disorders” (President and Fellows of Harvard College, priority 2005, dated 2019).

The structures appear in SMILES notation. Entries after “also recorded” stand apart in the source; their conditions may differ.

Series [1] deals with MM.1S cells. Nature of the series: Cell cycle profile by flow cytometry (PI staining). The class given is cell-based, human. The note with it: 24 h. As for the experimental part:
[…] Cells were then stained with propidium iodine (PI, Sigma) (5 μg/ml) and cell cycle profile was determined using program M software on an Epics flow cytometer (Coulter Immunology, Hialeah, Fla.) (44).
A general note: Flow cytometry measures light scatter and fluorescence of single cells or particles in a stream.

For another series, the system named is breast cancer cells. Nature of the series: Synergy of bortezomib and tubacin in breast cancer. It counts as cell-based.
Series [2] deals with tubulin acetylation versus lysine acetylation. Nature of the series: Immunofluorescence assay for acetylated tubulin versus acetylated lysine. It counts as cell-based. The text has this:
The present invention provides an immunofluorescence-based assay for identifying test agents with HDAC and/or TDAC inhibitory activity. The inventive assay is based on the use of specific antibodies for acetylated tubulin and acetylated lysine (i.e., a marker for acetylated histones). […] As described above, any type of agent, including small molecules, polymers, biomolecules, proteins, peptides, polynucleotides, etc., may be screened using the inventive assay. In certain embodiments, small molecules are screened. In certain particular embodiments, the small molecules are tubacin-like or are tubacin derivatives. In certain embodiments, the small molecules are compounds of the present invention. The test agents may also be small molecules purchased, prepared through traditional synthetic techniques, prepared through combinatorial chemistry techniques, or obtained from historical chemical collections. In certain embodiments, the test agents are biomolecules. In other embodiments, the test agents are proteins or peptides. In yet other embodiments, the test agents are polynucleotides. In certain embodiments, the test agents are polymers.
The assay involves contacting cells with a specific concentration of the test agent under specific conditions. […] There particular parameters may be determined by the operator or scientist conducting the assay as would be appreciated by one of skill in this art. After a determined time of incubation with the test compound, the cells are treated with a first primary antibody directed against acetylated tubulin and a second primary antibody directed against acetylated lysine. […] The signal from each of the secondary antibodies is measured and optionally quantitated to determine the amount of TDAC and HDAC inhibition under the specified conditions with the test agent. Optionally, the extent of inhibition is determined relative to a control in which no test agent was added. In certain embodiments, the secondary antibody is left out and the primary antibodies are uniquely labeled for identification and optionally quantification. […]

Series [3] deals with MM.1S cells. Nature of the series: [3H]-thymidine uptake with or without IL-6. The class given is cell-based, human. The note with it: tubacin 1.25-5 μM, IL-6 5-20 ng/ml, 48 h. As for the experimental part: Proliferation was measured by ^3H-thymidine uptake. Briefly, MM cells (3×10^4 cells/well) were incubated in 96-well culture plates in the presence of media, Velcade and/or Tubacin for 48 h at 37° C. DNA synthesis was measured by [^3H]-thymidine ([^3H]-TdR, Perkin Elmer, Boston, Mass.) uptake. Cells were pulsed with [^3H]TdR (0.5 μCi/well) during the last 8 h of 48 h cultures. All experiments were performed in triplicate.

The test system of another series is PBMCs. Nature of the series: MTT cytotoxicity assay in normal PBMCs. The note with it: PBMCs from normal volunteers, tubacin 2.5-20 μM, 48 h. The class given is cell-based, human. A general note: Tetrazolium assays rely on reduction of a dye to a coloured formazan, in cell work by metabolically active cells.
The subject of series [4] is JNK phosphorylation and caspase/PARP cleavage. Nature of the series: Western blotting for p21Cip1, p-JNK, caspases and PARP. It counts as cell-based, human. How it is done: MM cells were cultured with Velcade and/or Tubacin; harvested; washed; and lysed using lysis buffer: 50 mM Tris-HCl (pH 7.4), 150 mM NaCl, 1% NP-40, 5 mM EDTA, 5 mM NaF, 2 mM Na3VO4, 1 mM PMSF, 5 μg/ml leupeptine, and 5 μg/ml aprotinin. Cell lysates were subjected to SDS-PAGE, transferred to PVDF membrane (Bio-Rad Laboratories, Hercules, Calif.), and immunoblotted with Abs against specific proteins.
Cells cultured with tubacin and/or bortezomib were harvested; washed, and lysed using lysis buffer: 50 mM Tris-HCl (pH 7.4), 150 mM NaCl, 1% NP-40, 5 mM EDTA, 5 mM NaF, 1 mM Na3VO4, 1 mM PMSF, 5 μg/ml leupeptine, and 5 μg/ml aprotinin. Whole cell lysates were subjected to SDS-PAGE, transferred to nitrocellulose membrane (Bio-Rad Laboratories, Hercules, Calif.), and immunoblotted with specific Abs (31). Western blotting was done using anti-HDAC6, acetylated lysine, acetylated histone H3, acetylated histone H4, ubiquitin (Ub), phospho-SAPK (JNK), caspase-8 caspase-9, caspase-3, and PARP Abs (Cell Signaling, Beverly, Mass.); with anti-α-tubulin Ab (Santa Cruz Biotechnology, Santa Cruz, Calif.); as well as with anti-dynein Ab (Sigma, Saint Louis, Mo.). For immunoprecipitation, whole cell lysates were incubated with anti-Ub or dynein Abs overnight at 4° C., and then incubated with protein A/G PLUS-Agarose (Santa Cruz Biotechnology) for 2 h at 4° C., as in our prior study (31). Immunoprecipitates were then subjected to Western blotting for detection of HDAC6 and dynein.

Series [5] concerns MM.1S cells and RPMI cells. The experiment in a line: Inhibition of protein catabolism in myeloma cells. The note with it: FIG. 18. It counts as cell-based.
For series [6], the system named is rat astrocytes and striatal neurons. The experiment in a line: Russell body formation in rat astrocytes and striatal neurons. As to conditions: previous experiments, comparable concentrations. It counts as cell-based.
The next series relates to A549 lung cancer cells. As to conditions: previously reported; cited from earlier work.

`O=C(CCCCCCC(=O)Nc1ccc([C@H]2O[C@@H](CSc3nc(-c4ccccc4)c(-c4ccccc4)o3)C[C@@H](c3ccc(CO)cc3)O2)cc1)NO` [tubacin]: in the series with MM.1S cells [1] (Velcade 5 nM with tubacin 5 μM), the “G2/M arrest triggered by Velcade” value is recorded as “significantly inhibits G2/M arrest”. The cell cycle profile result with MM.1S cells [1] (tubacin 5 μM alone) was “does not alter cell cycle profile”. Also, the “synergy with bortezomib in breast cancer” value in the series with breast cancer cells is “synergy”. The “specificity for tubulin acetylation versus lysine acetylation” value in series [2] (A549 cells) and in series [2] (cells not given) was “specificity” throughout. For the same compound, in the series with MM.1S cells [3], the “growth inhibitory / cytotoxic effect of tubacin in the presence of IL-6” value was “maintained; also recorded: did not overcome”. Further, the “cytotoxicity of tubacin in PBMCs” value in the series on PBMCs is given as “no cytotoxicity; also recorded: No adverse effect”. The “phosphorylation of JNK and caspase/PARP cleavage” value in series [4] (MM.1S cells, tubacin 5 μM and/or bortezomib 5 nM, 24 h) is on record as “does not trigger phosphorylation of JNK or caspase/PRAP cleavage”. In addition, the “induction of p21Cip1 induced by bortezomib” value in series [4] (tubacin 5 μM + bortezomib 5 nM, MM.1S, 24 h) is “inhibits induction of p21^Cip1 induced by bortezomib”. Also, the “induction of p21Cip1” value in [4] (tubacin 5 μM alone, MM.1S, 24 h) is given as “does not trigger induction of p21^Cip1”. The caspase-8/PARP cleavage result in series [4] (tubacin 10 μM, 0-24 h, MM.1S and RPMI8226 cells) is on record as “time-dependent caspase-8/PARP cleavage is induced; also recorded: induces cytotoxicity via activation of caspases”. Moreover, in [5], the “inhibition of protein catabolism” value is “potent inhibitors of protein catabolism”. Further, the Russell body formation entry in series [6] is “features suggestive of Russell body formation”. Also, in the series on A549 lung cancer cells, the “histone acetylation, transcriptional profile, cell cycle, viability” value was “no effect on histone acetylation, the transcriptional profile, cell cycle, or viability of A549 lung cancer cells”.
